The record followed here is patent US20250059164A1, “IRAK DEGRADERS AND USES THEREOF” (Kymera Therapeutics, Inc., priority 2023, published 2025).

By DC50 is commonly meant the concentration giving 50% degradation. Read a low DC50 as a more potent degrader. What is called bioavailability is dose-corrected exposure relative to a reference, in per cent.

One data set deals with T1, IRAK4 (Homo sapiens, UniProt Q9NWZ3).
T1 construct: endogenous in cells; host or cells: OCI-LY10
T1 sequence (Q9NWZ3 1-460): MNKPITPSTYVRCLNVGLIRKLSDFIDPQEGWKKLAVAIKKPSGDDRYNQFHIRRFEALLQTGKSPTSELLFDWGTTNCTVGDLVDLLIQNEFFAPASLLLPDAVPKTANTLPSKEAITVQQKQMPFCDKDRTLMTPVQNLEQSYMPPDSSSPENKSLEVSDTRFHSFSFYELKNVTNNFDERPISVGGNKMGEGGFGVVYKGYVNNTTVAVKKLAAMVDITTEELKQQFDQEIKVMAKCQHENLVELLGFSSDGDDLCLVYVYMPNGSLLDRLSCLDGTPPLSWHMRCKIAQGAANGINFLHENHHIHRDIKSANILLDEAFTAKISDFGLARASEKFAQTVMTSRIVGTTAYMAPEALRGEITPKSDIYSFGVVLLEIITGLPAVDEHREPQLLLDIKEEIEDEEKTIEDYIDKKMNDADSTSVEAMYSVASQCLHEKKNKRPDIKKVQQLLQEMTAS
Put plainly: IRAK4 MSD degradation in OCI-LY10. Format: cell-based. To be noted: OCI-LY10 cells, 24 hrs, Meso Scale Discovery. The method, boiled down: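 OCI-LY10 cells treated 4 to 24 hours at 37° C. with 8-dose 1:3 series, top 1 to 10 μM. IRAK4 in lysates quantified by MSD sandwich immunoassay (mouse capture, rabbit detection, SULFO-TAG anti-rabbit). DC50 from three-parameter logistic fit.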

A short description of data set [1]: Rodent pharmacokinetics (rat PK). It counts as in vivo. The note with it: po, dosed intravenously or orally by gavage, plasma, read-out: F % (bioavailability). As for the experimental part: All studies related to handling, care, and treatment of rats in the study were performed according to the guidelines approved by the Institutional Animal Care and Use Committee (IACUC). All rats had access to food and water ad libitum. Rats were dosed intravenously or orally by gavage. Whole blood was collected from the jugular vein immediately prior to dosing and at 5 (intravenously administered drugs only), 15, and 30 min and 1, 2, 4, 8, and 24 h after drug administration. After sampling, whole blood was centrifuged at 4,000×g for 5 min at 4° C. to obtain plasma.
The letter codes for bioavailability (F %) include: A (≥5%) and B (≤5%).

In the case of `Cn1c(=O)n(C2CCC(=O)NC2=O)c2cccc(N3CCC4(CCN(C[C@H]5CC[C@H](n6cc7cc(NC(=O)c8cncc(C#N)c8)c(C(C)(C)O)cc7n6)CC5)CC4(F)F)CC3)c21` (mixture of isomers) [I-136, 5-Cyano-N-[2-[4-[[9-[1-(2,6-dioxo-3-piperidyl)-3-methyl-2-oxo-benzimidazol-4-yl]-5,5-difluoro-3,9-diazaspiro[5.5]undecan-3-yl]methyl]cyclohexyl]-6-(1-hydroxy-1-methyl-ethyl)indazol-5-yl]pyridine-3-carboxamide], the 50% degradation concentration (DC50) on IRAK4 was less than 10 nM. Further, the bioavailability in data set [1] was not above 5%. For `COc1ccc2c(c1N1CC3(CCN(C[C@H]4CC[C@H](n5cc6cc(NC(=O)c7cncc(C#N)c7)c(C(C)(C)O)cc6n5)CC4)CC3(F)F)C1)n(C)c(=O)n2C1CCC(=O)NC1=O` (mixture of isomers) [I-227, 5-Cyano-N-[2-[4-[[2-[1-(2,6-dioxo-3-piperidyl)-5-methoxy-3-methyl-2-oxo-benzimidazol-4-yl]-5,5-difluoro-2,7-diazaspiro [3.5]nonan-7-yl]methyl]cyclohexyl]-6-(1-hydroxy-1-methyl-ethyl)indazol-5-yl]pyridine-3-carboxamide], in that order: less than 10 nM and not above 5%. The matching figures for `CN(C[C@H]1CC[C@H](n2cc(NC(=O)c3cnn4ccc(N5C[C@H]6C[C@@H]5CO6)nc34)c(C(F)F)n2)CC1)[C@H]1CCN(c2cccc3c2n(C)c(=O)n3C2CCC(=O)NC2=O)C[C@H]1F` (single isomer, unassigned) [I-27]: less than 10 nM and not above 5%. `CN(C[C@H]1CC[C@H](n2cc(NC(=O)c3cnn4ccc(N5C[C@H]6C[C@@H]5CO6)nc34)c(C(F)F)n2)CC1)[C@H]1CCN(c2cccc3c2n(C)c(=O)n3C2CCC(=O)NC2=O)C[C@@H]1F` (single isomer, unassigned) [I-28] showed a DC50 on IRAK4 of less than 10 nM. The bioavailability in data set [1] was not below 5%.

`O=C1CCC(c2ccc(N3CC(N4CCN([C@H]5CC[C@H](n6cc(NC(=O)c7cnn8ccc(N9C[C@H]%10C[C@@H]9CO%10)nc78)c(C(F)F)n6)CC5)CC4)C3)cc2Cl)C(=O)N1` (single isomer, unassigned) [I-46] had a half-maximal degradation concentration (DC50) at IRAK4 of less than 10 nM. Besides, the bioavailability in data set [1] is not below 5%. The matching figures for `Cn1c(=O)n(C2CCC(=O)NC2=O)c2cccc([C@@H]3CCN(C[C@H]4CC[C@H](c5nc6cc(C(C)(C)O)c(NC(=O)c7cccc(C(F)(F)F)n7)cc6s5)CC4)C[C@H]3F)c21` (single isomer, unassigned) [I-102]: less than 10 nM and not below 5%. For `CN(C[C@H]1CC[C@H](c2nc3cc(C(C)(C)O)c(NC(=O)c4cccc(C(F)(F)F)n4)cc3s2)CC1)[C@@H]1CCN(c2cccc3c2n(C)c(=O)n3C2CCC(=O)NC2=O)C[C@@H]1F` (single isomer, unassigned) [I-104], in that order: less than 10 nM and not below 5%. Turning to `COc1cc2nn([C@H]3CC[C@H](CN4CC[C@H](c5cccc6c5n(C)c(=O)n6C5CCC(=O)NC5=O)C(F)(F)C4)CC3)cc2cc1NC(=O)c1cncc(C#N)c1` (single isomer, unassigned) [I-106], on IRAK4, the half-maximal degradation concentration (DC50) is less than 10 nM. The bioavailability in data set [1] is not above 5%. The matching figures for `Cn1c(=O)n(C2CCC(=O)NC2=O)c2cccc([C@@H]3CCN(C[C@H]4CC[C@H](n5cc6cc(NC(=O)c7cncc(C(F)(F)F)n7)ccc6n5)CC4)C[C@H]3F)c21` (single isomer, unassigned) [I-112]: less than 10 nM and not above 5%. The compound `COc1cc2nc([C@H]3CC[C@H](CN4CC[C@H](c5cccc6c5n(C)c(=O)n6C5CCC(=O)NC5=O)C(F)(F)C4)CC3)sc2cc1NC(=O)c1cncc(C#N)c1` (single isomer, unassigned) [I-140] displayed a DC50 on IRAK4 of more than 200 nM. Moreover, the bioavailability in data set [1] was not above 5%. The matching figures for `CN(C[C@H]1CC[C@H](c2nc3cc(C(C)(C)O)c(NC(=O)c4cncc(C(F)(F)F)c4)cc3s2)CC1)[C@@H]1CCN(c2cccc3c2n(C)c(=O)n3C2CCC(=O)NC2=O)C[C@H]1F` (single isomer, unassigned) [I-159]: 10 to 100 nM and not below 5%. For `CN(C[C@H]1CC[C@H](c2nc3cc(C(C)(C)O)c(NC(=O)c4cncc(C(F)(F)F)c4)cc3s2)CC1)[C@@H]1CCN(c2cccc3c2n(C)c(=O)n3C2CCC(=O)NC2=O)C[C@@H]1F` (single isomer, unassigned) [I-161], in that order: less than 10 nM and not below 5%.

For `CN(C[C@H]1CC[C@H](c2nc3cc(C(C)(C)O)c(NC(=O)c4cncc(C(F)(F)F)c4)cc3s2)CC1)[C@H]1CCN(c2cccc3c2n(C)c(=O)n3C2CCC(=O)NC2=O)C[C@H]1F` (single isomer, unassigned) [I-162], at IRAK4, the DC50 is less than 10 nM. Further, the bioavailability in data set [1] was not below 5%. For `Cn1c(=O)n(C2CCC(=O)NC2=O)c2cccc([C@H]3CCN(C[C@H]4CC[C@H](n5cc6cc(NC(=O)c7cncc(C(F)(F)F)n7)ccc6n5)CC4)CC3(F)F)c21` (single isomer, unassigned) [I-180], in that order: less than 10 nM and not below 5%. As for `CN(C[C@H]1CC[C@H](c2nc3cc(C(C)(C)O)c(NC(=O)c4cccc(C(F)(F)F)c4)cc3s2)CC1)[C@@H]1CCN(c2cccc3c2n(C)c(=O)n3C2CCC(=O)NC2=O)C[C@@H]1F` (single isomer, unassigned) [I-192], the 50% degradation concentration (DC50) at IRAK4 was less than 10 nM. Also, in data set [1], the bioavailability was not below 5%.

Compound `CN(C[C@H]1CC[C@H](c2nc3cc(C(C)(C)O)c(NC(=O)c4cccc(C(F)(F)F)c4)cc3s2)CC1)[C@H]1CCN(c2cccc3c2n(C)c(=O)n3C2CCC(=O)NC2=O)C[C@H]1F` (single isomer, unassigned) [I-199] yielded a DC50 at IRAK4 of 10 to 100 nM. For the same compound, the bioavailability in data set [1] is not below 5%.

At IRAK4, `Cn1c(=O)n(C2CCC(=O)NC2=O)c2cccc([C@H]3CCN(C[C@H]4CC[C@H](n5cc6cc(NC(=O)c7cncc(C(F)(F)F)n7)ncc6n5)CC4)CC3(F)F)c21` (single isomer, unassigned) [I-205] displayed a 50% degradation concentration (DC50) of less than 10 nM. In addition, the bioavailability in data set [1] is not above 5%.

The compound `Cn1c(=O)n(C2CCC(=O)NC2=O)c2cccc([C@@H]3CCN(C[C@H]4CC[C@H](n5cc6cc(NC(=O)c7cncc(C(F)(F)F)n7)ncc6n5)CC4)CC3(F)F)c21` (single isomer, unassigned) [I-206] returned a DC50 at IRAK4 of 10 to 100 nM. The bioavailability in data set [1] was not below 5%. Regarding `Cn1c(=O)n([C@@H]2CCC(=O)NC2=O)c2cccc([C@@H]3CCN(C[C@H]4CC[C@H](n5cc6cc(NC(=O)c7cncc(C(F)(F)F)n7)ccc6n5)CC4)C[C@H]3F)c21` (single isomer, unassigned) [I-208], at IRAK4, the DC50 is less than 10 nM. Moreover, the bioavailability in data set [1] is not above 5%. The matching figures for `Cn1c(=O)n([C@H]2CCC(=O)NC2=O)c2cccc([C@@H]3CCN(C[C@H]4CC[C@H](n5cc6cc(NC(=O)c7cncc(C(F)(F)F)n7)ccc6n5)CC4)C[C@H]3F)c21` (single isomer, unassigned) [I-209]: less than 10 nM and not above 5%. For `CN(C[C@H]1CC[C@H](c2cn3cc(NC(=O)c4cncc(C(F)(F)F)n4)ccc3n2)CC1)[C@@H]1CCN(c2cccc3c2n(C)c(=O)n3C2CCC(=O)NC2=O)C[C@@H]1F` (single isomer, unassigned) [I-213], in that order: less than 10 nM and not above 5%. For `Cn1nc(C2CCC(=O)NC2=O)c2cccc([C@@H]3CCN(C[C@H]4CC[C@H](n5cc6cc(NC(=O)c7cncc(C#N)c7)c(C(C)(C)O)cc6n5)CC4)CC3(F)F)c21` (single isomer, unassigned) [I-222], in that order: less than 10 nM and not below 5%. In the case of `Cn1nc(C2CCC(=O)NC2=O)c2cccc([C@H]3CCN(C[C@H]4CC[C@H](n5cc6cc(NC(=O)c7cncc(C#N)c7)c(C(C)(C)O)cc6n5)CC4)CC3(F)F)c21` (single isomer, unassigned) [I-223], at IRAK4, the DC50 is less than 10 nM. In data set [1], the bioavailability is not above 5%. For the compound `Cn1c(=O)n(C2CCC(=O)NC2=O)c2ccc(F)c([C@@H]3CCN(C[C@H]4CC[C@H](n5cc6cc(NC(=O)c7cncc(C#N)c7)c(C(C)(C)O)cc6n5)CC4)CC3(F)F)c21` (single isomer, unassigned) [I-226], the DC50 at IRAK4 was less than 10 nM. The bioavailability in data set [1] was not above 5%. For `Cn1c(=O)n(C2CCC(=O)NC2=O)c2cccc([C@@H]3CCN(C[C@H]4CC[C@H](c5nc6cc(C(C)(C)O)c(NC(=O)c7cncc(C#N)c7)cc6s5)CC4)C[C@H]3F)c21` (single isomer, unassigned) [I-229], in that order: less than 10 nM and not above 5%. Turning to `Cn1c(=O)n(C2CCC(=O)NC2=O)c2cccc([C@H]3C[C@H](COC4CCN(C[C@H]5CC[C@H](n6cc(NC(=O)c7cnn8ccc(N9C[C@H]%10C[C@@H]9CO%10)nc78)c(C(F)F)n6)CC5)CC4)C3)c21` (stereo partly drawn) [I-267], the bioavailability in data set [1] is not above 5%.
